# Laboratory results from patent US12509452B2, “Substituted-isoxazoline-containing aromatic compound, preparation method therefor, herbicidal composition and use thereof” (QINGDAO KINGAGROOT CHEMICAL COMPOUND CO., LTD., priority 2019, dated 2025).
# How the values were obtained:
# Assay type in all cases: in vivo
# Alopecurus japonicus = assay: weeding effect in post-emergence stage
# Summary of the method: (§1)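 Read-out is fresh weight growth control rate, binned into levels 0-5 (Level 5 above 85%, Level 0 below 5%), recorded 3 weeks after spraying and averaged over three repeats. Plants were treated at the 2-3 leaf stage with 7.5-500 g a.i./ha plus methyl oleate synergist.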
# Beckmannia syzigachne = assay: weeding effect in post-emergence stage
# Summary of the method: as §1
# Conyza japonica = assay: weeding effect in post-emergence stage
# Summary of the method: as §1
# Rorippa indica = assay: weeding effect in post-emergence stage
# Summary of the method: as §1
# [1] = test system: Echinochloa crusgalli, Scirpus juncoides and Bidens tripartita L. collected from Heilongjiang Province of China; assay: resistance tests of the collected rice field weeds; conditions: seeds collected from Heilongjiang Province of China
# Source text: Note: The seeds of Echinochloa crusgalli, Scirpus juncoides and Bidens tripartita L. were collected from Heilongjiang Province of China.
structure (smiles),measurement,setting,value
"CCOC(=O)C1(C)CC(c2cc(-n3c(=O)cc(C(F)(F)F)n(C)c3=O)c(F)cc2Cl)=NO1 (centres unmarked) [Control compound B, reference compound]","weeding effect in post-emergence stage, Alopecurus japonicus (activity level)",Alopecurus japonicus; dose 7.5 g a.i./ha,3 (Level 3: growth control rate is greater than or equal to 40% and less than 60%)
same,"weeding effect in post-emergence stage, Alopecurus japonicus (activity level)",Alopecurus japonicus; dose 15 g a.i./ha,4 (Level 4: growth control rate is greater than or equal to 60% and less than 85%)
same,"weeding effect in post-emergence stage, Beckmannia syzigachne (activity level)",Beckmannia syzigachne; dose 7.5 g a.i./ha,2 (Level 2: growth control rate is greater than or equal to 20% and less than 40%)
same,"weeding effect in post-emergence stage, Beckmannia syzigachne (activity level)",Beckmannia syzigachne; dose 15 g a.i./ha,3 (Level 3: growth control rate is greater than or equal to 40% and less than 60%)
same,"weeding effect in post-emergence stage, Conyza japonica (activity level)",Conyza japonica; dose 7.5 g a.i./ha,3 (Level 3: growth control rate is greater than or equal to 40% and less than 60%)
same,"weeding effect in post-emergence stage, Conyza japonica (activity level)",Conyza japonica; dose 15 g a.i./ha,4 (Level 4: growth control rate is greater than or equal to 60% and less than 85%)
same,"weeding effect in post-emergence stage, Rorippa indica (activity level)",Rorippa indica; dose 7.5 g a.i./ha,2 (Level 2: growth control rate is greater than or equal to 20% and less than 40%)
same,"weeding effect in post-emergence stage, Rorippa indica (activity level)",Rorippa indica; dose 15 g a.i./ha,3 (Level 3: growth control rate is greater than or equal to 40% and less than 60%)
CCOC(=O)c1cnn(C)c1S(=O)(=O)NC(=O)Nc1nc(OC)cc(OC)n1 [Pyrazosulfuron-ethyl],response of the weeds to the common doses,[1],resistant
"CCOC(=O)C1(C)CC(c2cc(-n3c(=O)cc(C(F)(F)F)n(C)c3=O)c(F)cc2Cl)=NO1 (centres unmarked) [drawing 745, reference compound]","weeding effect in post-emergence stage, Alopecurus japonicus (activity level)",Alopecurus japonicus; dose 15 g a.i./ha,2 (Level 2: growth control rate is greater than or equal to 20% and less than 40%)
same,"weeding effect in post-emergence stage, Beckmannia syzigachne (activity level)",Beckmannia syzigachne; dose 15 g a.i./ha,1 (Level 1: growth control rate is greater than or equal to 5% and less than 20%)
same,"weeding effect in post-emergence stage, Conyza japonica (activity level)",Conyza japonica; dose 15 g a.i./ha,1 (Level 1: growth control rate is greater than or equal to 5% and less than 20%)
same,"weeding effect in post-emergence stage, Rorippa indica (activity level)",Rorippa indica; dose 15 g a.i./ha,1 (Level 1: growth control rate is greater than or equal to 5% and less than 20%)
"CCOC(=O)C1(C)CC(c2cc(-n3c(=O)n(C)c(=S)n(C)c3=O)c(F)cc2Cl)=NO1 (centres unmarked) [drawing 746, reference compound]","weeding effect in post-emergence stage, Alopecurus japonicus (activity level)",Alopecurus japonicus; dose 15 g a.i./ha,2 (Level 2: growth control rate is greater than or equal to 20% and less than 40%)
same,"weeding effect in post-emergence stage, Beckmannia syzigachne (activity level)",Beckmannia syzigachne; dose 15 g a.i./ha,1 (Level 1: growth control rate is greater than or equal to 5% and less than 20%)
same,"weeding effect in post-emergence stage, Conyza japonica (activity level)",Conyza japonica; dose 15 g a.i./ha,1 (Level 1: growth control rate is greater than or equal to 5% and less than 20%)
same,"weeding effect in post-emergence stage, Rorippa indica (activity level)",Rorippa indica; dose 15 g a.i./ha,1 (Level 1: growth control rate is greater than or equal to 5% and less than 20%)
